Among the data in patent US20250320206A1, “STAT6 DEGRADERS” (Gilead Sciences, Inc., priority 2024, published 2025) are DC50 values, retold here.

The experiment addresses T1, STAT6 (Homo sapiens, UniProt P42226).
T1 construct: These cells express endogenous STAT6; host or cells: HeLa LgBiT clone 4.14
T1 sequence (P42226 1-847): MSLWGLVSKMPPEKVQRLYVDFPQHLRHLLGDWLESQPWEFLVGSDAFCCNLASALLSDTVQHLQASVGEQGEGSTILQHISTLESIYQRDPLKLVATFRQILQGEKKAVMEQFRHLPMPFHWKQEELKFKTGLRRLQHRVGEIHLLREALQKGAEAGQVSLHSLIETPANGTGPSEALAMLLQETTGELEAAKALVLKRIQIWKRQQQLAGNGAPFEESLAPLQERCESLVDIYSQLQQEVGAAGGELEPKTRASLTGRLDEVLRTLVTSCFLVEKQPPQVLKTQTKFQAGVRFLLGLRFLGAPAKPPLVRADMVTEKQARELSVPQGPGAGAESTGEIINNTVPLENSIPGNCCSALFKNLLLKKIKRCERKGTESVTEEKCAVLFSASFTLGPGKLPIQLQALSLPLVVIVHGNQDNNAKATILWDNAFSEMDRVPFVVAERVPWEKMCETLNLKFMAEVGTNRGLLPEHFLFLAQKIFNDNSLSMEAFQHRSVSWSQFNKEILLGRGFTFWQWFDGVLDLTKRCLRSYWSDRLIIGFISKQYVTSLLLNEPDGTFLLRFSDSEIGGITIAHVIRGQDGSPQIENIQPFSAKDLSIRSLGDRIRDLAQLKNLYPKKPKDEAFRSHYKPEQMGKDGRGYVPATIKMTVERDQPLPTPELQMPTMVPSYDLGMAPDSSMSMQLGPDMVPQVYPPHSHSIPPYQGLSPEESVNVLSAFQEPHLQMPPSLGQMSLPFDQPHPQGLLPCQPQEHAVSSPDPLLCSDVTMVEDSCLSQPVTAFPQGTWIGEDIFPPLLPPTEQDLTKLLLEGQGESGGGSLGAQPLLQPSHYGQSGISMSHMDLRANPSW
Nature of the experiment: Stat6 Degrader Assay (HiBiT based, HeLa LgBiT clone 4.14). Format: cell-based. The note with it: HeLa LgBiT clone 4.14 HiBiT-STAT6, 4-24 h incubation; values given for compounds with >80% Emax; geometric mean; read-out: STAT6 degradation DC50. The method, then:
This was a HiBit based assay. A HeLa cell line stably transfected with a small protein, LgBit (Large Bit) was obtained from Promega. These cells express endogenous STAT6. A small 11 amino acid gene sequence (HiBiT) was inserted in the STAT6 gene using CRISPR technology. Once STAT6 protein is expressed in the cells, the HiBiT sequence will bind the LgBit in the cells resulting in a functional NanoBiT protein, giving a luminescent tag to STAT6, see FIG. 2.
Single cell clones were prepared and the clone 4.14 was selected for the assay based on that clone showing high luminescence, high STAT6 phosphorylation upon stimulation with IL-4, and inhibition of luminescence when cells were treated with STAT6 siRNA.
HeLa LgBiT clone 4.14 cells were suspended in DMEM with 10% FCS, 1% Pen/Strep, Na-pyrovate and Hygromycin B, at a concentration of 1.25*105 cells pr mL. 5000 cells were added pr well of a 384 well plate and 20 nL of compound was added by Echo® liquid handler. NN6394A (terfenadine, a toxic compound) was added to control wells at 50 μM concentration to establish the assay window. In these wells the cells are dead which equals 100% degradation of STAT6.
After 4-24 h of incubation at 37° C. under 5% CO2/95% air, 5 μL substrate (Nano-GLO®) was added to the wells and the plates were centrifuged and incubated for 0.5 h.
The luminescence in the wells as a measure of non-degraded STAT6 was measured in a plate reader (BMG Pherastar FSX).
The dose-response curves for Examples 3u208, 3u246, 3u118, 3u119, 3u120, and 3u74 are shown in FIG. 1 (where percent degradation is plotted vs. test compound concentration in M on a log-scale).
Broadly, the DC50 is the concentration giving 50% degradation. As for `CNc1c(F)cn(-c2ccnc3c2cc([C@H](C)N2CC=C(c4c(C)cc(C(=O)N5CCC(CN6CCN(Cc7ccc8c(c7)C7(CC7)C(=O)N8C7CCC(=O)NC7=O)C[C@@H]6C)CC5)cc4F)CC2)n3C)c(=O)c1F` (stereo partly drawn) [Example 3u4, 3-(5′-(((S)-4-((1-(4-(1-((S)-1-(4-(3,5-difluoro-4-(methylamino)-2-oxopyridin-1 (2H)-yl)-1-methyl-1H-pyrrolo[2,3-b]pyridin-2-yl)ethyl)-1,2,3,6-tetrahydropyridin-4-yl)-3-fluoro-5-methyl-benzoyl)-piperidin-4-yl)methyl)-3-methylpiperazin-1-yl)methyl)-2′-oxospiro[cyclopropane-1,3′-indolin]-1′-yl)piperidine-2,6-dione], the half-maximal degradation concentration (DC50) was determined as 4 nM. Consider `CNc1ccn(-c2ccnc3c2cc([C@H](C)N2CC=C(c4c(C)cc(C(=O)N5CCC(CN6CCN(Cc7cc8c(cc7F)n(C7CCC(=O)NC7=O)c(=O)n8C)CC6)CC5)cc4F)CC2)n3C)c(=O)c1` (stereo partly drawn) [Example 3u10, 3-(6-fluoro-5-((4-((1-(3-fluoro-5-methyl-4-(1-((S)-1-(1-methyl-4-(4-(methylamino)-2-oxopyridin-1 (2H)-yl)-1H-pyrrolo[2,3-b]pyridin-2-yl)ethyl)-1,2,3,6-tetrahydropyridin-4-yl)benzoyl)-piperidin-4-yl)methyl)piperazin-1-yl)methyl)-3-methyl-2-oxo-2,3-dihydro-1H-benzo[d]imidazol-1-yl)piperidine-2,6-dione], for which the 50% degradation concentration (DC50) was determined as 0.6 nM. In the case of `CNc1cc(=O)n(-c2ccnc3c2cc([C@H](C)N2CC=C(c4c(C)cc(C(=O)N5CCC(F)(CC6CCN(c7ccc8c(c7)C7(CC7)C(=O)N8C7CCC(=O)NC7=O)CC6)CC5)cc4F)CC2)n3C)cc1F` (stereo partly drawn) [Example 3u21, 3-(5′-(4-((4-fluoro-1-(3-fluoro-4-(1-((S)-1-(4-(5-fluoro-4-(methylamino)-2-oxopyridin-1 (2H)-yl)-1-methyl-1H-pyrrolo[2,3-b]pyridin-2-yl)ethyl)-1,2,3,6-tetrahydropyridin-4-yl)-5-methylbenzoyl)piperidin-4-yl)methyl)piperidin-1-yl)-2′-oxospiro[cyclopropane-1,3′-indolin]-1′-yl)-piperidine-2,6-dione], the DC50 turned out to be 0.4 nM. Take `Cc1cc(C(=O)N2CCC(CN3CCN(Cc4ccc5c(c4)n(C)c(=O)n5C4CCC(=O)NC4=O)C[C@@H]3C)CC2)cc(F)c1C1=CCN(Cc2cc3c(-n4ccc5c(c4=O)CCN5)ccnc3n2C)CC1` (stereo partly drawn) [Example 3u23, 3-(5-(((S)-4-((1-(3-fluoro-5-methyl-4-(1-((1-methyl-4-(4-oxo-1,2,3,4-tetrahydro-5H-pyrrolo[3,2-c]pyridin-5-yl)-1H-pyrrolo[2,3-b]pyridin-2-yl)methyl)-1,2,3,6-tetrahydropyridin-4-yl)benzoyl)piperidin-4-yl)methyl)-3-methylpiperazin-1-yl)methyl)-3-methyl-2-oxo-2,3-dihydro-1H-benzo[d]imidazol-1-yl)piperidine-2,6-dione]: the DC50 was determined as 1.3 nM. As for `CNc1cc(=O)n(-c2ccnc3c2cc([C@H](C)N2CC=C(c4c(C)cc(C(=O)N5CCC(CC6(O)CCN(c7ccc8c(c7)C7(CC7)C(=O)N8C7CCC(=O)NC7=O)CC6)CC5)cc4F)CC2)n3C)cc1F` (stereo partly drawn) [Example 3u70, 3-(5′-(4-((1-(3-fluoro-4-(1-((S)-1-(4-(5-fluoro-4-(methylamino)-2-oxopyridin-1 (2H)-yl)-1-methyl-1H-pyrrolo[2,3-b]pyridin-2-yl)ethyl)-1,2,3,6-tetrahydropyridin-4-yl)-5-methylbenzoyl)-piperidin-4-yl)methyl)-4-hydroxypiperidin-1-yl)-2′-oxospiro[cyclopropane-1,3′-indolin]-1′-yl)-piperidine-2,6-dione], the DC50 came out at 5.8 nM. Take `CNc1ccn(-c2ccnc3c2cc(CN2CCC(c4c(F)cc(C(=O)N5CCC(CN6CCN(Cc7ccc8c(c7)C7(CC7)C(=O)N8C7CCC(=O)NC7=O)C[C@@H]6C)CC5)cc4F)CC2)n3C)c(=O)c1F` (stereo partly drawn) [Example 3u84, 3-(5′-(((S)-4-((1-(3,5-difluoro-4-(1-((4-(3-fluoro-4-(methylamino)-2-oxopyridin-1 (2H)-yl)-1-methyl-1H-pyrrolo[2,3-b]pyridin-2-yl)methyl)piperidin-4-yl)benzoyl)piperidin-4-yl)methyl)-3-methylpiperazin-1-yl)methyl)-2′-oxospiro[cyclopropane-1,3′-indolin]-1′-yl)piperidine-2,6-dione]: the half-maximal degradation concentration (DC50) stood at 26 nM. On to `CNc1ccn(-c2ccnc3c2cc([C@H](C)N2CC=C(c4c(C)cc(C(=O)N5CCC(CN6CCN(Cc7cc8c(cc7F)n(C7CCC(=O)NC7=O)c(=O)n8C7CC7)CC6)CC5)cc4F)CC2)n3C)c(=O)c1` (stereo partly drawn) [Example 3u103, 3-(3-cyclopropyl-6-fluoro-5-((4-((1-(3-fluoro-5-methyl-4-(1-((S)-1-(1-methyl-4-(4-(methylamino)-2-oxopyridin-1 (2H)-yl)-1H-pyrrolo[2,3-b]pyridin-2-yl)ethyl)-1,2,3,6-tetrahydropyridin-4-yl)benzoyl)piperidin-4-yl)methyl)piperazin-1-yl)methyl)-2-oxo-2,3-dihydro-1H-benzo[d]imidazol-1-yl)piperidine-2,6-dione], for which the 50% degradation concentration (DC50) was determined as 2.5 nM.

Regarding `CNc1ccn(-c2ccnc3c2cc([C@H](C)N2CC=C(c4c(C)cc(C(=O)N5CCC(CN6CCN(Cc7ccc8c(c7)C7(CCCC7)C(=O)N8C7CCC(=O)NC7=O)CC6)CC5)cc4F)CC2)n3C)c(=O)c1` (stereo partly drawn) [Example 3u110, 3-(5′-((4-((1-(3-fluoro-5-methyl-4-(1-((S)-1-(1-methyl-4-(4-(methylamino)-2-oxopyridin-1 (2H)-yl)-1H-pyrrolo[2,3-b]pyridin-2-yl)ethyl)-1,2,3,6-tetrahydropyridin-4-yl)benzoyl)piperidin-4-yl)methyl)piperazin-1-yl)methyl)-2′-oxospiro[cyclopentane-1,3′-indolin]-1′-yl)piperidine-2,6-dione], the DC50 was found to be 2.5 nM. For the compound `CNc1ccn(-c2ccnc3c2cc([C@H](C)N2CC=C(c4c(C)cc(C(=O)N5CCC(CN6CCN(Cc7ccc8c(c7)C7(CC7)C(=O)N8C7CCC(=O)NC7=O)C[C@@H]6C)CC5)cc4F)CC2)n3C)c(=O)c1F` (stereo partly drawn) [Example 3u114, 3-(5′-(((S)-4-((1-(3-fluoro-4-(1-((S)-1-(4-(3-fluoro-4-(methylamino)-2-oxopyridin-1 (2H)-yl)-1-methyl-1H-pyrrolo[2,3-b]pyridin-2-yl)ethyl)-1,2,3,6-tetrahydropyridin-4-yl)-5-methyl-benzoyl)piperidin-4-yl)methyl)-3-methylpiperazin-1-yl)methyl)-2′-oxospiro[cyclopropane-1,3′-indolin]-1′-yl)piperidine-2,6-dione], the DC50 was determined as 9.9 nM. For `Cc1cc(C(=O)N2CCC(CN3CCN(Cc4cc5c(cc4F)n(C4CCC(=O)NC4=O)c(=O)n5C4CC4)C[C@@H]3C)CC2)cc(F)c1C1=CCN([C@@H](C)c2cc3c(-n4ccc5c(c4=O)CCN5)ccnc3n2C)CC1` (stereo partly drawn) [Example 3u131, 3-(3-cyclopropyl-6-fluoro-5-(((S)-4-((1-(3-fluoro-5-methyl-4-(1-((S)-1-(1-methyl-4-(4-oxo-1,2,3,4-tetrahydro-5H-pyrrolo[3,2-c]pyridin-5-yl)-1H-pyrrolo[2,3-b]pyridin-2-yl)ethyl)-1,2,3,6-tetrahydropyridin-4-yl)benzoyl)piperidin-4-yl)methyl)-3-methylpiperazin-1-yl)methyl)-2-oxo-2,3-dihydro-1H-benzo[d]imidazol-1-yl)piperidine-2,6-dione], the half-maximal degradation concentration (DC50) was found to be 0.8 nM.
